Assay results from US20110152313A1 (MACQUARIE UNIVERSITY, priority 2008, published 2011).

Columns and labels:
Assay in all cases: kinase binding constant, 11-point dose response (T7 phage, qPCR)
Settings in all cases: >30 = no inhibition at highest concentration tested
RSK1 = biological target: T1, RSK1 (Homo sapiens, UniProt Q15418)
T1 construct: RPS6KA1(Kin.Dom.2-C-terminal)
Procedure: (§1) Kinase inhibition studies were performed by methods well known in the prior art (Fabian, M. A. et al. Nat. Biotechnol. 2005, 23, 329). Briefly, kinase-tagged T7 phage strains were prepared in an E. coli host derived from the BL21 strain. E. coli were grown to log-phase and infected with T7 phage and incubated with shaking at 32° C. until lysis. The lysates were centrifuged and filtered to remove cell debris. […] The liganded beads were blocked with excess biotin and washed with blocking buffer (SeaBlock (Pierce); 1% BSA, 0.05% Tween 20, 1 mM DTT) to remove unbound ligand and to reduce non-specific binding. […] All reactions were performed in polystyrene 96-well plates in a final volume of 0.135 ml. […] The kinase concentration in the eluates was measured by qPCR.
(§2) An 11-point 3-fold serial dilution of each test compound (from 30 μM to 0.5 nM) was prepared in 100% DMSO at 100× final test concentration and subsequently diluted to 1× in the assay (final DMSO concentration=1%). Binding constants (KDS) were calculated with a standard dose-response curve using a 5-point sigmoidal (Hill) equation.

AAK1 = AAK1 (Homo sapiens, UniProt Q2M2I8)
Sequence of AAK1 (Q2M2I8 whole entry): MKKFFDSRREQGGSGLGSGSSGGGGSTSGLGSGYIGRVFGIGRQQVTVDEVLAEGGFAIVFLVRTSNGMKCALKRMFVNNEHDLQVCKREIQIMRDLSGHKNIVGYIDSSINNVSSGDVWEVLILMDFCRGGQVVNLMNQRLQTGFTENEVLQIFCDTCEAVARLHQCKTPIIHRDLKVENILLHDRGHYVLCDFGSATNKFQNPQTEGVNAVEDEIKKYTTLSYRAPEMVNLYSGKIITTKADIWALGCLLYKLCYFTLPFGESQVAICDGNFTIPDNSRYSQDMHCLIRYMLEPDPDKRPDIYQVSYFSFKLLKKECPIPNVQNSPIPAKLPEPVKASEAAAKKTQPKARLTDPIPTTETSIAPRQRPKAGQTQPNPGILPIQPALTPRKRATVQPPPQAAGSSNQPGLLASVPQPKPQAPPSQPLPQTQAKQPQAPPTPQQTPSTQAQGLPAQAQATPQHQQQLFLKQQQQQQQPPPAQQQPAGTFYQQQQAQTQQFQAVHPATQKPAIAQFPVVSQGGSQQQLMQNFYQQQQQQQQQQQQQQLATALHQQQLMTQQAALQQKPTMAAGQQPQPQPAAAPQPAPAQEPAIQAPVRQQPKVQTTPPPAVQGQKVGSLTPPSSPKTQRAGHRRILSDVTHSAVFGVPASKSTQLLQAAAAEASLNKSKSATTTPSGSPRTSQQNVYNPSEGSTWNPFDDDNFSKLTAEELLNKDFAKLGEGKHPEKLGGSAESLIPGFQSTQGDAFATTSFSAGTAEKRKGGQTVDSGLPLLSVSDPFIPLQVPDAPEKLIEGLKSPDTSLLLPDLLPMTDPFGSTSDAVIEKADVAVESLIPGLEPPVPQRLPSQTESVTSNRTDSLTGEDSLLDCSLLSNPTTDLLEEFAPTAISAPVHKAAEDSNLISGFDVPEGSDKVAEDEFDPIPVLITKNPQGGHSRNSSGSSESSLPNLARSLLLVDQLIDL
Procedure: as §1, §2

PRKCE = biological target: T2, PRKCE (Homo sapiens, UniProt Q02156)
T2 sequence (Q02156 1-737): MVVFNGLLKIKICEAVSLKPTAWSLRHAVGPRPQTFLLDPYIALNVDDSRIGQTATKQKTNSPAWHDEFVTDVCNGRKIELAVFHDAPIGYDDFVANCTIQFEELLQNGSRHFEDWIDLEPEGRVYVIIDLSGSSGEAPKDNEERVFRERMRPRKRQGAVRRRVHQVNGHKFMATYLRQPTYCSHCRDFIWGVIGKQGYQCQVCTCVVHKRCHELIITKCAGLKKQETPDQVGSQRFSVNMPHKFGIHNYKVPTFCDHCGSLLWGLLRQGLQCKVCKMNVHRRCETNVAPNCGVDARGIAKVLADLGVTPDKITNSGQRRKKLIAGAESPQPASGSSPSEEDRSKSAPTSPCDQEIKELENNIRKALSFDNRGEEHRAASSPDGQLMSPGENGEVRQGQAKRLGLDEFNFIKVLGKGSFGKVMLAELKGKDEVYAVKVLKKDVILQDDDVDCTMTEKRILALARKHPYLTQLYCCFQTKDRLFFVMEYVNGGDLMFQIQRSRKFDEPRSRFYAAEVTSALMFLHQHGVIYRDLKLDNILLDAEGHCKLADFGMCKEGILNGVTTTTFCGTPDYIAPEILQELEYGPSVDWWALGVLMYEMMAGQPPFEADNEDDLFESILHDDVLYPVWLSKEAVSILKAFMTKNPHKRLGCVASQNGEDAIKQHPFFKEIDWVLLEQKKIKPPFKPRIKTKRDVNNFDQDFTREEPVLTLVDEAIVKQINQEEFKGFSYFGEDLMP
Procedure: as §1, §2

TYK2 = biological target: T3, TYK2 (Homo sapiens, UniProt P29597)
T3 construct: TYK2(JH2domain-pseudokinase)
T3 sequence (P29597 whole entry): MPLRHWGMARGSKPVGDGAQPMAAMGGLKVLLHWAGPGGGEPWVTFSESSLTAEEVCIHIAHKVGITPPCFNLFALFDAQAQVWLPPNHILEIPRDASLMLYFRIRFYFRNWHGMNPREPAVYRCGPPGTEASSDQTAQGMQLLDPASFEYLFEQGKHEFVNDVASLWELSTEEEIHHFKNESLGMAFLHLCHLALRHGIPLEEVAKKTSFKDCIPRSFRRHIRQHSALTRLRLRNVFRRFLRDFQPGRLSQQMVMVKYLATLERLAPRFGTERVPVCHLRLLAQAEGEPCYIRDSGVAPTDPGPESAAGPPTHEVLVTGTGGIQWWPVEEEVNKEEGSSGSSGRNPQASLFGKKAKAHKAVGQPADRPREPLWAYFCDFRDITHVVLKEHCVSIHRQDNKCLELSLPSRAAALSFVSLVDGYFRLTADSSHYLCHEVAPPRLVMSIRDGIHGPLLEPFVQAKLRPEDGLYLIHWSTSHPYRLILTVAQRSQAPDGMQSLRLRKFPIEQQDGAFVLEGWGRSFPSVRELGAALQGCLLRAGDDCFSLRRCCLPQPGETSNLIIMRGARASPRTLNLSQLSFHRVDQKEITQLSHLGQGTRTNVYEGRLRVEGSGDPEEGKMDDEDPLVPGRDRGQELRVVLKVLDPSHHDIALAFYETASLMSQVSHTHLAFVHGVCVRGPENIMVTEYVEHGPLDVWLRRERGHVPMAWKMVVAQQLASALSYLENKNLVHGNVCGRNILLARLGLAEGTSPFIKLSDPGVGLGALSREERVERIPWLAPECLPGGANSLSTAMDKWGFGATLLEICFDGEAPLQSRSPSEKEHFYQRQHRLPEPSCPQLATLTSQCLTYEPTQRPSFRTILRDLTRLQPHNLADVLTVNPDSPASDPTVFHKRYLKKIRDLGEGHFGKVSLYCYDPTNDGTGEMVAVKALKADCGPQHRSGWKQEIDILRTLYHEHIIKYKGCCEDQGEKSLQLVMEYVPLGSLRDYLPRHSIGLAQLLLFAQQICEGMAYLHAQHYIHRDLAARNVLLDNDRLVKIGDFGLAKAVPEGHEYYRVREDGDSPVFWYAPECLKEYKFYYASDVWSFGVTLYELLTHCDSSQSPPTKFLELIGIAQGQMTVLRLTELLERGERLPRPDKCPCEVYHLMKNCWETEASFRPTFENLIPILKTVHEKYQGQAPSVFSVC
Procedure: as §1, §2

PIK4CB = PIK4CB (Homo sapiens, UniProt Q9UBF8)
Sequence of PIK4CB (Q9UBF8 whole entry, species assumed): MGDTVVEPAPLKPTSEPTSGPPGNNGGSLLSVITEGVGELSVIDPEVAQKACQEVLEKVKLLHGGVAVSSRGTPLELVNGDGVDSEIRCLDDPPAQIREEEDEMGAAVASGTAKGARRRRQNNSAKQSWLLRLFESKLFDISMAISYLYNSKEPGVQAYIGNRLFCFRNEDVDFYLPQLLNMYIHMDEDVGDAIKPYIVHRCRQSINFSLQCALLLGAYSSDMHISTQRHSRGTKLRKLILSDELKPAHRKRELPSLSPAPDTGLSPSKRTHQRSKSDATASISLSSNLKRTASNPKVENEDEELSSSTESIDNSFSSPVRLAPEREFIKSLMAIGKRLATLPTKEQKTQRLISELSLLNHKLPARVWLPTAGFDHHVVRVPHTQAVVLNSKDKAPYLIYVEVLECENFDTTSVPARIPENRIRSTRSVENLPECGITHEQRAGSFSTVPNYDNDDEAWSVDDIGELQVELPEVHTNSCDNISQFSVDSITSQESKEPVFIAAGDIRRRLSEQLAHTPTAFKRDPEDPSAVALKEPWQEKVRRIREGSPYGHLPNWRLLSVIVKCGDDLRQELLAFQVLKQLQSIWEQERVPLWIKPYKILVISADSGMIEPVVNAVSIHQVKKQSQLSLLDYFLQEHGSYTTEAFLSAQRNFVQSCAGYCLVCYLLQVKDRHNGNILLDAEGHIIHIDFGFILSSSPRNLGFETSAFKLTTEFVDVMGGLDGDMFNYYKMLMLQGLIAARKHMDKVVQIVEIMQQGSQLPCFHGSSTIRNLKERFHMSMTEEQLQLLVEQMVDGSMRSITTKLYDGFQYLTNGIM
Procedure: as §1, §2

DYRK2 = biological target: T4, DYRK2 (Homo sapiens, UniProt Q92630)
T4 sequence (Q92630 1-601): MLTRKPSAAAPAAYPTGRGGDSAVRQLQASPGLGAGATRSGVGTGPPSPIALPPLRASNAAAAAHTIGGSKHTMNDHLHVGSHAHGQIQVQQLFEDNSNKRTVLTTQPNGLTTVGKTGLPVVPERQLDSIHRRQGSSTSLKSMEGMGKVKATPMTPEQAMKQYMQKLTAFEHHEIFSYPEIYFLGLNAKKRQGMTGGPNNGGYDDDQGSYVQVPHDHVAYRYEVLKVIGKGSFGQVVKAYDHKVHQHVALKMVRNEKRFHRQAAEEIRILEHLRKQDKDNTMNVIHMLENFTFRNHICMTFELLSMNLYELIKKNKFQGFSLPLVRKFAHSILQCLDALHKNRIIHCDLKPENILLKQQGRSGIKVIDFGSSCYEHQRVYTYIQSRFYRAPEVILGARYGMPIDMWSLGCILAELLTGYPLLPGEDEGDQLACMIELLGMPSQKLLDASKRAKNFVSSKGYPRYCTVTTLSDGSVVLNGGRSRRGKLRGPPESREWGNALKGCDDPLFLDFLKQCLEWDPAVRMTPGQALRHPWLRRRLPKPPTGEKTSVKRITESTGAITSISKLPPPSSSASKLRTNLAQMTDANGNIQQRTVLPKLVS
Procedure: as §1, §2

T1 sequence (Q15418 whole entry): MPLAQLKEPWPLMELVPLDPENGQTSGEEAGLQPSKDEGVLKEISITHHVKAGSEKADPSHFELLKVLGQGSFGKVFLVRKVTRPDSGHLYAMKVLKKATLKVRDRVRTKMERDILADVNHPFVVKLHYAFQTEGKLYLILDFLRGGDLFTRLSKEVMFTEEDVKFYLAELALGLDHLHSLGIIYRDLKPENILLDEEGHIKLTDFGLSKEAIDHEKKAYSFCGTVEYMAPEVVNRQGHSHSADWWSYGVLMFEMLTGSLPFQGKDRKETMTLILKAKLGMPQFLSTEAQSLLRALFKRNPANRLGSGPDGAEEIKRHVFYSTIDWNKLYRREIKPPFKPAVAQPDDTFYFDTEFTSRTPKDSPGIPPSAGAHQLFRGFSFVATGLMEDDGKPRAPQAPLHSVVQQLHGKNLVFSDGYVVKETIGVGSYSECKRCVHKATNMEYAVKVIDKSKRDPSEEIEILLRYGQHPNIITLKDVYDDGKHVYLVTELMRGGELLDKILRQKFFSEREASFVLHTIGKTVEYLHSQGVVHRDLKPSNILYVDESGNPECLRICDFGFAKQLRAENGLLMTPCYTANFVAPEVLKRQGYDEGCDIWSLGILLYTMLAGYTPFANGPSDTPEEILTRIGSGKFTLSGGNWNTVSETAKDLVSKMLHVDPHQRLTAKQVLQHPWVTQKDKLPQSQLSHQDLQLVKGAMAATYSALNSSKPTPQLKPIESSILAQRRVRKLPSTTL

In the case of Nc1nc2c(-c3ccccn3)nccc2[nH]1 [drawing 35, 4-(pyrid-2-yl)-1H-imidazo[4,5-c]pyridin-2-amine], the Kd (RSK1) is reported as 0.53 µM, the Kd (AAK1) is reported as 1.5 µM and the Kd (PRKCE) is reported as greater than 30 µM.

Nc1nc2c(-c3cnc4ccccc4c3)nccc2[nH]1 [drawing 36, 4-(quinolin-3-yl)-1H-imidazo[4,5-c]pyridin-2-amine] gave a Kd (TYK2) of 0.29 µM, a Kd (PIK4CB) of 0.35 µM and a Kd (DYRK2) of 0.97 µM.
